{"source": "patent US20260285850A1", "about": "“SUBSTITUTED OXAZOLIDINONES AND IMIDAZOLINONES AS HERBICIDES” (FMC CORPORATION, priority 2023, published 2026)", "assay_type_in_all_cases": "in vivo", "key": {"[1]": {"tested_on": "barnyardgrass (Echinochloa crus-galli)", "assay": "Test A preemergence soil spray, visual injury rating 0-100", "conditions": "10 days", "summary_of_the_method": "(§1)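 Directed preemergence spray onto seeded soil or postemergence spray onto 2-10 cm plants (loam plus sand); compound carried in surfactant-containing non-phytotoxic solvent. Injury rated by eye after 10 d greenhouse growth; 0 = no effect, 100 = complete control.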"}, "[2]": {"tested_on": "blackgrass (Alopecurus myosuroides)", "assay": "Test A preemergence soil spray, visual injury rating 0-100", "conditions": "10 days", "summary_of_the_method": "as §1"}, "corn (Zea mays) [3]": {"tested_on": "corn (Zea mays)", "assay": "Test A preemergence soil spray, visual injury rating 0-100", "conditions": "10 days", "summary_of_the_method": "as §1"}, "[4]": {"tested_on": "green foxtail (Setaria viridis)", "assay": "Test A preemergence soil spray, visual injury rating 0-100", "conditions": "10 days", "summary_of_the_method": "as §1"}, "kochia (Bassia scoparia) [5]": {"tested_on": "kochia (Bassia scoparia)", "assay": "Test A preemergence soil spray, visual injury rating 0-100", "conditions": "10 days", "summary_of_the_method": "as §1"}, "[6]": {"tested_on": "oat, wild (wild oat, Avena fatua)", "assay": "Test A preemergence soil spray, visual injury rating 0-100", "conditions": "10 days", "summary_of_the_method": "as §1"}, "[7]": {"tested_on": "palmer (palmer amaranth, palmer pigweed, Amaranthus palmeri)", "assay": "Test A preemergence soil spray, visual injury rating 0-100", "conditions": "10 days", "summary_of_the_method": "as §1"}, "[8]": {"tested_on": "ragweed (common ragweed, Ambrosia artemisiifolia)", "assay": "Test A preemergence soil spray, visual injury rating 0-100", "conditions": "10 days", "summary_of_the_method": "as §1"}, "[9]": {"tested_on": "ryegrass, Italian (italian ryegrass, Lolium multiflorum)", "assay": "Test A preemergence soil spray, visual injury rating 0-100", "conditions": "10 days", "summary_of_the_method": "as §1"}, "soybean (Glycine max) [10]": {"tested_on": "soybean (Glycine max)", "assay": "Test A preemergence soil spray, visual injury rating 0-100", "conditions": "10 days", "summary_of_the_method": "as §1"}, "[11]": {"tested_on": "wheat (Triticum aestivum)", "assay": "Test A preemergence soil spray, visual injury rating 0-100", "conditions": "10 days", "summary_of_the_method": "as §1"}, "[12]": {"tested_on": "barnyardgrass (Echinochloa crus-galli)", "assay": "Test A postemergence application, visual injury rating 0-100", "summary_of_the_method": "as §1"}, "[13]": {"tested_on": "blackgrass (Alopecurus myosuroides)", "assay": "Test A postemergence application, visual injury rating 0-100", "summary_of_the_method": "as §1"}, "corn (Zea mays) [14]": {"tested_on": "corn (Zea mays)", "assay": "Test A postemergence application, visual injury rating 0-100", "summary_of_the_method": "as §1"}, "[15]": {"tested_on": "galium (catchweed bedstraw, Galium aparine)", "assay": "Test A postemergence application, visual injury rating 0-100", "summary_of_the_method": "as §1"}, "[16]": {"tested_on": "green foxtail (Setaria viridis)", "assay": "Test A postemergence application, visual injury rating 0-100", "summary_of_the_method": "as §1"}, "[17]": {"tested_on": "horseweed (Erigeron canadensis)", "assay": "Test A postemergence application, visual injury rating 0-100", "summary_of_the_method": "as §1"}, "kochia (Bassia scoparia) [18]": {"tested_on": "kochia (Bassia scoparia)", "assay": "Test A postemergence application, visual injury rating 0-100", "summary_of_the_method": "as §1"}, "[19]": {"tested_on": "oat, wild (wild oat, Avena fatua)", "assay": "Test A postemergence application, visual injury rating 0-100", "summary_of_the_method": "as §1"}, "[20]": {"tested_on": "palmer (palmer amaranth, palmer pigweed, Amaranthus palmeri)", "assay": "Test A postemergence application, visual injury rating 0-100", "summary_of_the_method": "as §1"}, "[21]": {"tested_on": "ragweed (common ragweed, Ambrosia artemisiifolia)", "assay": "Test A postemergence application, visual injury rating 0-100", "summary_of_the_method": "as §1"}, "[22]": {"tested_on": "ryegrass, Italian (italian ryegrass, Lolium multiflorum)", "assay": "Test A postemergence application, visual injury rating 0-100", "summary_of_the_method": "as §1"}, "soybean (Glycine max) [23]": {"tested_on": "soybean (Glycine max)", "assay": "Test A postemergence application, visual injury rating 0-100", "summary_of_the_method": "as §1"}, "[24]": {"tested_on": "wheat (Triticum aestivum)", "assay": "Test A postemergence application, visual injury rating 0-100", "summary_of_the_method": "as §1"}, "[25]": {"tested_on": "barnyardgrass (Echinochloa crusgalli)", "assay": "Test B flooded paddy test, visual plant response rating 0-100", "conditions": "250 g ai/ha, Flood, applied to paddy water, evaluated after 13 days", "summary_of_the_method": "(§2)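 In this flooded assay, 2-leaf seedlings received compound through the water layer, kept at 3 cm over the soil. Plants were held 13 days in a greenhouse and then visually compared with control pots.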"}, "[26]": {"tested_on": "ducksalad (Heteranthera limosa)", "assay": "Test B flooded paddy test, visual plant response rating 0-100", "conditions": "250 g ai/ha, Flood, applied to paddy water, evaluated after 13 days", "summary_of_the_method": "as §2"}, "rice (Oryza sativa)": {"tested_on": "rice (Oryza sativa)", "assay": "Test B flooded paddy test, visual plant response rating 0-100", "conditions": "250 g ai/ha, Flood, applied to paddy water, evaluated after 13 days", "summary_of_the_method": "as §2"}, "[27]": {"tested_on": "sedge, umbrella (small-flower umbrella sedge, Cyperus difformis)", "assay": "Test B flooded paddy test, visual plant response rating 0-100", "conditions": "250 g ai/ha, Flood, applied to paddy water, evaluated after 13 days", "summary_of_the_method": "as §2"}, "[28]": {"conditions": "62 g ai/ha, 0 = no effect, 100 = complete control"}, "[29]": {"conditions": "62 g ai/ha, postemergence, 10 days, 0 = no effect, 100 = complete control"}, "[30]": {"conditions": "Postemergence, 16 g ai/ha, greenhouse 10 days, 0 no effect, 100 complete control"}}}
{"smiles": "C=CC1(C(=O)NC2CC(C(=O)OC)C2)CN(c2cc(F)cc(F)c2)C(=O)O1", "note": "(stereo not shown) [Compound 172]", "values": [{"measurement": "Barnyardgrass plant response rating", "setting": "[1]; 16 g ai/ha, 0 to 100 scale", "result": 0}, {"measurement": "Barnyardgrass plant response rating (0-100)", "setting": "[1]; [28]", "result": 90}, {"measurement": "Blackgrass plant response rating", "setting": "[2]; 16 g ai/ha, 0 to 100 scale", "result": 50}, {"measurement": "Blackgrass plant response rating (0-100)", "setting": "[2]; [28]", "result": 90}, {"measurement": "Corn plant response rating", "setting": "corn (Zea mays) [3]; 16 g ai/ha, 0 to 100 scale", "result": 80}, {"measurement": "Corn plant response rating (0-100)", "setting": "corn (Zea mays) [3]; [28]", "result": 90}, {"measurement": "Foxtail, Green plant response rating", "setting": "[4]; 16 g ai/ha, 0 to 100 scale", "result": 40}, {"measurement": "Foxtail, Green plant response rating (0-100)", "setting": "[4]; [28]", "result": 100}, {"measurement": "Kochia plant response rating", "setting": "kochia (Bassia scoparia) [5]; 16 g ai/ha, 0 to 100 scale", "result": 0}, {"measurement": "Kochia plant response rating (0-100)", "setting": "kochia (Bassia scoparia) [5]; [28]", "result": 100}, {"measurement": "Oat, Wild plant response rating", "setting": "[6]; 16 g ai/ha, 0 to 100 scale", "result": 30}, {"measurement": "Oat, Wild plant response rating (0-100)", "setting": "[6]; [28]", "result": 90}, {"measurement": "Pigweed, Palmer plant response rating", "setting": "[7]; 16 g ai/ha, 0 to 100 scale", "result": 10}, {"measurement": "Pigweed, Palmer plant response rating (0-100)", "setting": "[7]; [28]", "result": 60}, {"measurement": "Ragweed plant response rating", "setting": "[8]; 16 g ai/ha, 0 to 100 scale", "result": 0}, {"measurement": "Ragweed plant response rating (0-100)", "setting": "[8]; [28]", "result": 0}, {"measurement": "Ryegrass, Italian plant response rating", "setting": "[9]; 16 g ai/ha, 0 to 100 scale", "result": 40}, {"measurement": "Ryegrass, Italian plant response rating (0-100)", "setting": "[9]; [28]", "result": 90}, {"measurement": "Soybean plant response rating", "setting": "soybean (Glycine max) [10]; 16 g ai/ha, 0 to 100 scale", "result": 0}, {"measurement": "Soybean plant response rating (0-100)", "setting": "soybean (Glycine max) [10]; [28]", "result": 70}, {"measurement": "Wheat plant response rating", "setting": "[11]; 16 g ai/ha, 0 to 100 scale", "result": 90}, {"measurement": "Wheat plant response rating (0-100)", "setting": "[11]; [28]", "result": 100}, {"measurement": "Barnyardgrass plant response rating (0-100)", "setting": "[12]; [29]", "result": 90}, {"measurement": "Barnyardgrass plant response rating (0 to 100 scale)", "setting": "[12]; [30]", "result": 80}, {"measurement": "Blackgrass plant response rating (0-100)", "setting": "[13]; [29]", "result": 90}, {"measurement": "Blackgrass plant response rating (0 to 100 scale)", "setting": "[13]; [30]", "result": 90}, {"measurement": "Corn plant response rating (0-100)", "setting": "corn (Zea mays) [14]; [29]", "result": 100}, {"measurement": "Corn plant response rating (0 to 100 scale)", "setting": "corn (Zea mays) [14]; [30]", "result": 100}, {"measurement": "Galium plant response rating (0-100)", "setting": "[15]; [29]", "result": 90}, {"measurement": "Galium plant response rating (0 to 100 scale)", "setting": "[15]; [30]", "result": 90}, {"measurement": "Foxtail, Green plant response rating (0-100)", "setting": "[16]; [29]", "result": 90}, {"measurement": "Foxtail, Green plant response rating (0 to 100 scale)", "setting": "[16]; [30]", "result": 80}, {"measurement": "Horseweed plant response rating (0-100)", "setting": "[17]; [29]", "result": 10}, {"measurement": "Horseweed plant response rating (0 to 100 scale)", "setting": "[17]; [30]", "result": 0}, {"measurement": "Kochia plant response rating (0-100)", "setting": "kochia (Bassia scoparia) [18]; [29]", "result": 90}, {"measurement": "Kochia plant response rating (0 to 100 scale)", "setting": "kochia (Bassia scoparia) [18]; [30]", "result": 90}, {"measurement": "Oat, Wild plant response rating (0-100)", "setting": "[19]; [29]", "result": 90}, {"measurement": "Oat, Wild plant response rating (0 to 100 scale)", "setting": "[19]; [30]", "result": 90}, {"measurement": "Pigweed, Palmer plant response rating (0-100)", "setting": "[20]; [29]", "result": 60}, {"measurement": "Pigweed, Palmer plant response rating (0 to 100 scale)", "setting": "[20]; [30]", "result": 10}, {"measurement": "Ragweed plant response rating (0-100)", "setting": "[21]; [29]", "result": 20}, {"measurement": "Ragweed plant response rating (0 to 100 scale)", "setting": "[21]; [30]", "result": 10}, {"measurement": "Ryegrass, Italian plant response rating (0-100)", "setting": "[22]; [29]", "result": 90}, {"measurement": "Ryegrass, Italian plant response rating (0 to 100 scale)", "setting": "[22]; [30]", "result": 80}, {"measurement": "Soybean plant response rating (0-100)", "setting": "soybean (Glycine max) [23]; [29]", "result": 80}, {"measurement": "Soybean plant response rating (0 to 100 scale)", "setting": "soybean (Glycine max) [23]; [30]", "result": 80}, {"measurement": "Wheat plant response rating (0-100)", "setting": "[24]; [29]", "result": 90}, {"measurement": "Wheat plant response rating (0 to 100 scale)", "setting": "[24]; [30]", "result": 90}, {"measurement": "Plant response rating, Barnyardgrass (0 to 100 scale, 0 is no effect and 100 is complete control)", "setting": "[25]", "result": 95}, {"measurement": "Plant response rating, Ducksalad (0 to 100 scale, 0 is no effect and 100 is complete control)", "setting": "[26]", "result": 80}, {"measurement": "Plant response rating, Rice (0 to 100 scale, 0 is no effect and 100 is complete control)", "setting": "rice (Oryza sativa)", "result": 70}, {"measurement": "Plant response rating, Sedge, Umbrella (0 to 100 scale, 0 is no effect and 100 is complete control)", "setting": "[27]", "result": 100}]}
